In US9944721B2, “Polysialic acid and use for treatment of neurodegenerative and neuroinflammatory diseases” (RHEINISCHE FRIEDRICH-WILHELMS UNIVERSITÄT BONN, priority 2013, dated 2018):

Tests used:
Format in all cases: cell-based
[1] = test system: human microglial cells; assay: Phagocytosis associated oxidative burst: neural debris triggered superoxide release (DHE); conditions: control experiment; 40 μM Trolox or 20 μg/ml SOD1
Procedure: To measure the relative production of superoxide by the microglial cells, human microglial cells were plated in 4-chamber culture dishes. After 24 hours cells were treated with 5 mg/ml neural debris for 15 minutes with or without 1 hour PSA-20 pre-incubation at concentrations of 0.15 μM, 0.5 μM or 1.5 μM. Then, cells were washed 2-times with Krebs-HEPES-buffer. To detect the release of superoxide the cells were afterwards incubated for 15 minutes with 30 μM superoxide-sensitive fluorescent dye dihydroethidium (DHE) solution diluted in Krebs-HEPES-buffer. Finally cells were washed 2-times with Krebs-HEPES-buffer and fixed for 15 minutes with 0.25% glutaraldehyde and 4% PFA. In total, six images were randomly collected per experimental group by confocal laser scanning microscopy (Fluoview 1000, Olympus). All cells of the collected images were analyzed by Image J software (NIH).
To confirm the effect, Trolox as scavenger of superoxide and superoxide dismutase-1 (SOD1) as modifier of superoxide were used in a control experiment as described above using 1.5 μM of PSA-20 but adding either 40 μM Trolox or 20 μg/ml (SOD1) into the medium. […] As can be taken from the FIG. 9C, the radical scavenger Trolox and the superoxide dismutase SOD1 neutralized the neural debris triggered superoxide release and as controls confirmed that DHE detected an extracellular production of superoxide.

[2] = test system: human microglial cells stimulated with fibrillary amyloid-β1-42; assay: Amyloid-β1-42 induced superoxide release of human microglia (DHE); conditions: repeat, FIG. 4B; PSA-20 1.5 μM; Trolox 40 μM; SOD1 20 μg/ml; Aβ 10 μM
Procedure: The human microglial cell line was treated with human Alzheimer's disease associated fibrillary amyloid-beta peptide (Aβ) to mimic inflammatory signalling of Alzheimer's disease brain tissue. To obtain fibrillary components of Aβ, the synthetic amyloid-beta peptide (amyloid-beta 1-42, Bachem/Brucker, 10 μM) was preincubated at 37° C. for at least three days. The human microglial cells were treated with the different concentrations of 0.15 μM, 0.5 μM, or 1.5 μM of low molecular weight polysialic acid (PSA-20) for 60 minutes followed by incubation for 15 minutes with fibrillary Aβ. Then, 30 μM dihydroethidium (DHE) was added and incubated at 37° C. for 15 minutes for measurement of superoxide anion radical production. Cells were fixed with 4% paraformaldehyde plus 0.25% glutaraldehyde and analyzed by confocal microscopy. For the quantification of DHE staining intensity six pictures of each experiment were obtained and analyzed by ImageJ software (NIH). The background was subtracted and the mean values of the staining intensities were compared. Cells were fixed and the intensity of DHE was quantified by confocal microscopy.
To confirm the specificity of the DHE measurement, the determination of the effect of PSA-20 on superoxide production in human microglial cells was repeated. As a control the radical scavenger Trolox, a water-soluble vitamin E analogue, was added to the system. Furthermore, as additional control superoxide dismutase-1 (SOD1) was added into the medium. Superoxide should no longer be detectable by the DHE dye after successful transformation of superoxide by SOD1.
Human microglial cells were cultured alone and production of reactive oxygen species was analyzed after treatment with the Alzheimer's disease plaques associated fibrillary amyloid-β1-42. To measure the relative production of superoxide by the microglial cells, cells were plated in 4-chamber culture dishes. After 24 hours human microglial cells were treated with 1.5 μM of low molecular weight polysialic acid (PSA-20) for 60 minutes followed by incubation for 15 minutes with 10 μM fibrillary amyloid-β1-42. Control dishes were treated with either 1.5 μM PSA-20 and 40 μM Trolox or 1.5 μM PSA-20 and 20 μg/ml superoxide dismutase-1 (SOD1, Serva). Then, cells were washed 2-times with Krebs-HEPES-buffer and afterwards incubated for 15 minutes with 30 μM DHE solution (diluted in Krebs-HEPES-buffer). Finally cells were washed 2-times with Krebs-HEPES-buffer and fixed for 15 minutes with 0.25% glutaraldehyde and 4% PFA. In total, six images were randomly collected per experimental group by confocal laser scanning microscopy (Fluoview 1000, Olympus). All cells of the collected images were analyzed by Image J software (NIH).

[3] = test system: LPS-activated human microglia; assay: LPS-induced TNF-alpha gene transcription in human microglia (qRT-PCR); conditions: LPS 1 μg/ml, 24 hours; for LPS-induced gene transcription of TNF-alpha: 0.15 μM, 0.5 μM and 1.5 μM, FIG. 3; for Anti-inflammatory effect on TNF-alpha of LPS-activated human microglia: summary of Example 4
Procedure: To analyse whether polysialic acid might interfere with a pro-inflammatory phenotype of human microglia, cultured human microglia were activated with lipopolysaccharides (LPS) and the effect of the distinct sialic acid forms including fractions of oligosialic and polysialic acid on the gene transcription of the pro-inflammatory cytokine tumor necrosis factor-alpha induced by the bacterial toxin LPS was determined. A human microglial line derived from induced pluripotent stem cells as described in WO 2010/125110 was used to study the effect of sialic acid forms with different chain length. Human microglial cells were cultured on 5 μg/ml poly-L-lysin (PLL, Sigma)-coated dishes in N2-medium containing DMEM/F12 culture medium (Gibco) supplemented with 1% N2 (Invitrogen), 0.48 mM L-glutamine (Gibco) and optionally 100 μg/ml penicillin/streptomycin (Gibco). Cells were cultured with high density and splitted 1:2 when required. The human induced pluripotent stem cell derived microglia line was treated with lipopolysaccharides (LPS, 1 μg/ml, Invivogen) and sialic acid forms with different chain length for 24 hours. Gene transcripts for tumor necrosis factor-α (TNF-alpha) were determined by quantitative RT-PCR and normalized to GAPDH. In detail, RNA isolation was performed using RNeasy Mini Kit (Qiagen) and transcription with the SuperScript First-Strand Synthesis System (Invitrogen). Quantitative RT-PCR with specific oligonucleotides (GAPDH: […] (SEQ ID NO: 1) and […] (SEQ ID NO: 2); TNFα: […] (SEQ ID NO: 3) and […] (SEQ ID NO: 4)) was performed using SYBR green PCR Master Mix with the Mastercycler epgradients S (Eppendorf). Results were normalized to GAPDH. Quantification using the delta-CT method was carried out.

[4] = test system: human microglial line derived from induced pluripotent stem cells (expressing Siglec-11); assay: MTT cell viability of human microglia treated with sialic acid forms; conditions: for metabolic activity of the microglial cells (MTT, normalized to cell number): 24 hours treatment, 0.15 μM, 0.5 μM and 1.5 μM, FIG. 2B; for Intact viability of human microglia: summary of Example 3, MTT, 24 hours
Procedure: A human microglial line derived from induced pluripotent stem cells as described in WO 2010/125110 was used to study the effect of sialic acid forms with different chain length. Human microglial cells were cultured on 5 μg/ml poly-L-lysin (PLL, Sigma)-coated dishes in N2-medium containing DMEM/F12 culture medium (Gibco) supplemented with 1% N2 (Invitrogen), 0.48 mM L-glutamine (Gibco) and optionally 100 μg/ml penicillin/streptomycin (Gibco). Cells were cultured with high density and splitted 1:2 when required.
The effect of different length and fractions of oligosialic acids and polysialic acids on the human microglial lines were analyzed by determination of cell viability normalized to the cell number and after treatment with monomeric sialic acid (SA, molecular weight of 0.3 kDa, Nacalai Tesque ING, Japan) and sialic acids consisting of 3 monomers (Tri-SA; molecular weight of 0.9 kDa, Nacalai Tesque ING, Japan) and sialic acids consisting of 6 monomers (Hexa-SA; molecular weight of 1.9 kDa, Nacalai Tesque ING, Japan), PSA with a number of sialic acid monomers between 14 and 26 (PSA-20; low molecular weight of PSA between 4.3 and 8 kDa for >90% of the substance) and PSA with a length between 46 and 110 of sialic acid monomers (PSA-60; medium molecular weight of PSA between 14.2 and 34 kDa for >90% of the substance).
The microglial cells were cultured in medium as described above and treated in culture with the different sialic acid forms.
Cell viability was determined by the MTT (3-(4,5-Dimethylthiazol-2-yl)-2,5-diphenyltetrazolium bromide, Millipore) assay after 24 hours treatment with distinct sialic acid forms with different chain length and normalized to the cell number. The light absorbance of the purple formazan in living cells was determined by a spectrophotometer at a wavelength of 570 nm (Perkin Elmer, Envision Multiplate Reader).

| Compound | neural debris triggered superoxide release [1] | amyloid-β1-42 induced stimulation of the superoxide production [2] | LPS-induced gene transcription of TNF-alpha [3] | Anti-inflammatory effect on TNF-alpha of LPS-activated human microglia [3] | metabolic activity of the microglial cells (MTT, normalized to cell number) [4] | Intact viability of human microglia [4] |
| --- | --- | --- | --- | --- | --- | --- |
| Cc1c(C)c2c(c(C)c1O)CCC(C)(C(=O)O)O2 (stereo not drawn) [Trolox, 6-hydroxy-2,5,7,8-tetramethylchroman-2-carboxylic acid, reference compound] | neutralized | scavenged | – | – | – | – |
| SOD1: superoxide dismutase-1 (Serva), added to the medium as a control | neutralized | neutralized | – | – | – | – |
| α2.8-polysialic acid [PSA-180] | – | – | no significant anti-inflammatory effect | No | significantly reduced | No |
| CC(=O)N[C@H]1[C@H]([C@H](O)[C@H](O)CO)OC(O)(C(=O)O)C[C@@H]1O (stereo partly drawn) [SA, N-acetylneuraminic acid] | – | – | did not significantly change | No | did not affect the metabolic activity | Yes |
